Molecular target: T1, human Nav1.8 (Homo sapiens, UniProt Q9Y5Y9)
T1 construct: expressed in transfected cells
Experiment: Qube® automated patch-clamp assay, Nav1.8
Assay type: cell-based
Conditions: human Nav1.8 stably expressed in HEK 293 cells; whole-cell voltage clamp, room temperature; read-out: IC50 values (nM) for Examples in the Nav1.8 Qube® Assay
Procedure: Compounds were tested on human Nav1.8 and Nav1.5 channels stably expressed in human embryo kidney (HEK) 293 cells. Sodium current measurements on Qube® were conducted as follows: automated 384-well patch-clamp assays on the Qube® platform (Sophion Biosciences) were used to measure the inhibition of sodium flow through human Nav1.8 and Nav1.5 channels. Whole-cell voltage-clamp recordings were performed in QChips® (Sophion Biosciences) at room temperature. Nav1.8 current measurements on Qube® were obtained as follows: Nav1.8 currents were elicited with a 10 second 1 Hertz (Hz) pulse train from a holding potential of −90 millivolts (mV), delivered to the cells once per minute in the control condition (DMSO only) and after compound addition. The 1 hertz pulse train stimulation consisted of ten test pulses to 10 millivolt (mV) for 20 milliseconds (ms), each of which was followed by a 980 millisecond repolarization to −67 millivolts. At the end of the 10 second pulse train stimulation, a 5 second hyperpolarization step to −100 millivolt (mV) was used to recover Nav1.8 from fast inactivation. The peak currents elicited by the 1st and 10th test pulses were used to determine IC50 values for resting inhibition and inactivated state inhibition. Nav1.5 current measurements on Qube® were obtained as follows: Nav1.5 currents were elicited with a 20 second 3 Hertz pulse train in the control condition (DMSO only) and after compound addition. The pulse train consisted of sixty 20 millisecond test pulses to 0 millivolt from a holding potential of −80 millivolt (mV). The average peak currents elicited by the last 3 test pulses were used to determine IC50 values for Nav1.5 inhibition.
The following buffers were used for the Qube® recordings: External buffer for Nav1.8 Qube® recording: 150 NaCl, 2 CaCl2, 5 KCl, 1 Mg Cl2, 10 HEPES, 12 Dextrose; External buffer for Qube® Nav1.5 recording: 120 N-Methyl-D-Glucamine, 40 NaCl, 1 KCl, 2.7 CaCl2, 5 HEPES, 0.5 MgCl2; and Internal buffer for Qube® recording: 120 CsF, 30 CsCl, 10 EGTA, 5 HEPES, 5 NaF, 2 MgCl2.
For all Qube® experiments offline analysis was used to determine percent inhibition as a function of drug concentration. IC50 values were determined by fitting to the Hill equation.

T1 sequence (Q9Y5Y9 whole entry): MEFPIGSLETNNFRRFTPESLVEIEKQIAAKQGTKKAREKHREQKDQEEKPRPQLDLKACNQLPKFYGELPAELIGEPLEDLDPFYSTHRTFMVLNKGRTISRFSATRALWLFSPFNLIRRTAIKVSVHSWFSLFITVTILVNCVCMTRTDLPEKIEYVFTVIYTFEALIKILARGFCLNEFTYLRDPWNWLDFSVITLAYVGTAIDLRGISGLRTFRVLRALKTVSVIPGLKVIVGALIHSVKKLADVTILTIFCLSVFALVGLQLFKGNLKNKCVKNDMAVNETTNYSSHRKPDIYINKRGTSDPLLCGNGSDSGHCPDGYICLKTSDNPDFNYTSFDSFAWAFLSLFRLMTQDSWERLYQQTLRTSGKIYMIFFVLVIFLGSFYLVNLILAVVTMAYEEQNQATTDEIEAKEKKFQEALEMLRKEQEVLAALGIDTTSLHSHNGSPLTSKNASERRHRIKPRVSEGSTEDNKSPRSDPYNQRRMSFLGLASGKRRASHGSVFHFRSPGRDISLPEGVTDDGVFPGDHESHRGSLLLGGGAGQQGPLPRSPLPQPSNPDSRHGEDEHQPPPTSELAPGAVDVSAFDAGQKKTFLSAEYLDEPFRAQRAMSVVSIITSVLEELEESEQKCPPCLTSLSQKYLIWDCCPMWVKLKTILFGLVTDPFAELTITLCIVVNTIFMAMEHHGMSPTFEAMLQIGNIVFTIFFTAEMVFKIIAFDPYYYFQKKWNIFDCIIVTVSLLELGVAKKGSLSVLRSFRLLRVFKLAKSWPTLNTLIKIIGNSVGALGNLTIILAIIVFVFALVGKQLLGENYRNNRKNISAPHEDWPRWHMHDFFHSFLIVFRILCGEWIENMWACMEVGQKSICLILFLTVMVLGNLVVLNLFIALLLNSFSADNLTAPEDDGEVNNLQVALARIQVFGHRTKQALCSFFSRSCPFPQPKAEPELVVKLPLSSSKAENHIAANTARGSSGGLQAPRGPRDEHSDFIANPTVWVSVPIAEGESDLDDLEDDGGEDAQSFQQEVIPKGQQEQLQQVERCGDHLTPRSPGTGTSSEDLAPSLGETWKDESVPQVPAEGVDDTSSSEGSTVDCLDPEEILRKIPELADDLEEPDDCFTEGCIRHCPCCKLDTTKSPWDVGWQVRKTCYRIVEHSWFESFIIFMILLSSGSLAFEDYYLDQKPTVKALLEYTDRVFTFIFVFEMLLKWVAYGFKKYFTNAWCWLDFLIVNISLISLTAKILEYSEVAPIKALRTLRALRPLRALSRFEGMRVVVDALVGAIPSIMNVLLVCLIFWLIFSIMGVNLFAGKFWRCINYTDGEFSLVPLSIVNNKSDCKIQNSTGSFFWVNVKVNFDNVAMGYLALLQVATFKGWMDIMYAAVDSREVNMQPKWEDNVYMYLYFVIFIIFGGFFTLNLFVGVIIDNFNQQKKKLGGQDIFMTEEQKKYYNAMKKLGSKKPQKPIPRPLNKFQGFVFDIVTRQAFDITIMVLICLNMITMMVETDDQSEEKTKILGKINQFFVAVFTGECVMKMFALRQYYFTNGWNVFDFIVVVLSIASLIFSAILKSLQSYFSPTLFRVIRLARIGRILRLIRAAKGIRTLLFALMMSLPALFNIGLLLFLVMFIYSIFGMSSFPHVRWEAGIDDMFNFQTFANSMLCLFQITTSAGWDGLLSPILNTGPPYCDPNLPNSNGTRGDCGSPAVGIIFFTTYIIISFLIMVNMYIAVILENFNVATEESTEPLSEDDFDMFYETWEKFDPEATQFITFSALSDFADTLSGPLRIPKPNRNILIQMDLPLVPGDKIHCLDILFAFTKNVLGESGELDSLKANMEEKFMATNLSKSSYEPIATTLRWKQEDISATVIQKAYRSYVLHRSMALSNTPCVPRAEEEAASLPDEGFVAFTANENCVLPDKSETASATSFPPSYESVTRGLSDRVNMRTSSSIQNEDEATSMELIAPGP

SMILES | IC50 [nM]
O=C1C[C@H](C(=O)NC(c2ccc(Cl)cc2)c2ccc(C3CC3)cc2)CN1 (stereo partly drawn) [Example 3, (3S)-N-((4-chlorophenyl)(4-cyclopropylphenyl)methyl)-5-oxopyrrolidine-3-carboxamide] | 186
CC(C)c1ccc(C(NC(=O)[C@@H]2CNC(=O)C2)c2ccc(Cl)cc2)cc1 (stereo partly drawn) [Example 4, (3S)-N-((4-chlorophenyl)(4-isopropylphenyl)methyl)-5-oxopyrrolidine-3-carboxamide] | 108
O=C1C[C@H](C(=O)NC(c2ccc(Cl)cc2)c2cc(F)cc(C(F)(F)F)c2)CN1 (stereo partly drawn) [Example 7, (3S)-N-((4-chlorophenyl)(3-fluoro-5-(trifluoromethyl)phenyl)methyl)-5-oxopyrrolidine-3-carboxamide] | 186
O=C1C[C@H](C(=O)NC(c2ccc(C(F)(F)F)cc2)c2cccc(C(F)(F)F)c2)CN1 (stereo partly drawn) [Example 8, (3S)-5-oxo-N-((3-(trifluoromethyl)phenyl)(4-(trifluoromethyl)phenyl)methyl)pyrrolidine-3-carboxamide] | 19
O=C1C[C@H](C(=O)NC(c2ccc(C(F)(F)F)cc2)c2ccc(C(F)(F)F)cc2)CN1 [Example 9, (S)-N-(bis(4-(trifluoromethyl)phenyl)methyl)-5-oxopyrrolidine-3-carboxamide] | 28
O=C1C[C@H](C(=O)NC(c2ccc(Cl)cc2)c2cccc(OC(F)(F)F)c2)CN1 (stereo partly drawn) [Example 10, (3S)-N-((4-chlorophenyl)(3-(trifluoromethoxy)phenyl)methyl)-5-oxopyrrolidine-3-carboxamide] | 52
O=C1C[C@H](C(=O)NC(c2ccc(F)c(Cl)c2)c2ccc(F)c(Cl)c2)CN1 [Example 18, (S)-N-(bis(3-chloro-4-fluorophenyl)methyl)-5-oxopyrrolidine-3-carboxamide] | 5.3
O=C1C[C@H](C(=O)NC(COc2ccccc2)c2ccc(F)c(C(F)(F)F)c2)CN1 (stereo partly drawn) [Example 25, (3S)-N-(1-(4-fluoro-3-(trifluoromethyl)phenyl)-2-phenoxyethyl)-5-oxopyrrolidine-3-carboxamide] | 53

The remaining compounds from weak to strong by IC50, led by results:

IC50 [nM] | SMILES
7650 | CC1C(=O)NCC1C(=O)NC(c1ccc(Cl)cc1)c1ccc(Cl)cc1 (single isomer, unassigned) [Example 27D, (3(R or S),4(R or S)—N-(bis(4-chlorophenyl)methyl)-4-methyl-5-oxopyrrolidine-3-carboxamide]
820 | N#Cc1cccc(C(NC(=O)[C@@H]2CNC(=O)C2)c2cccc(Cl)c2)c1 (stereo partly drawn) [Example 2, (3S)-N-((3-chlorophenyl)(3-cyanophenyl)methyl)-5-oxopyrrolidine-3-carboxamide]
520 | O=C1C[C@H](C(=O)NC(c2cccc(Cl)c2)c2cccc(OC(F)F)c2)CN1 (stereo partly drawn) [Example 6, (3S)-N-((3-chlorophenyl)(3-(difluoromethoxy)phenyl)methyl)-5-oxopyrrolidine-3-carboxamide]
435 | O=C1C[C@H](C(=O)NC(CCc2ccccc2)c2cccc(Cl)c2)CN1 (stereo partly drawn) [Example 26, (3S)-N-(1-(3-chlorophenyl)-3-phenylpropyl)-5-oxopyrrolidine-3-carboxamideNa]
92 | O=C1C[C@H](C(=O)NC(c2ccc(F)c(C(F)(F)F)c2)c2csc(C(F)(F)F)n2)CN1 (stereo partly drawn) [Example 23, (3S)-N-((4-fluoro-3-(trifluoromethyl)phenyl)(2-(trifluoromethyl)thiazol-4-yl)methyl)-5-oxopyrrolidine-3-carboxamide]
32 | N#Cc1cc(C(NC(=O)[C@@H]2CNC(=O)C2)c2ccc(F)c(Cl)c2)ccc1F (stereo partly drawn) [Example 22, (3S)—N-((3-chloro-4-fluorophenyl)(3-cyano-4-fluorophenyl)methyl)-5-oxopyrrolidine-3-carboxamide]
11 | COc1cc(Cl)ccc1C(NC(=O)[C@@H]1CNC(=O)C1)c1ccc(Cl)cc1 (stereo partly drawn) [Example 5, (3S)-N-((4-chloro-2-methoxyphenyl)(4-chlorophenyl)methyl)-5-oxopyrrolidine-3-carboxamide]
5.5 | O=C1C[C@H](C(=O)NC(c2ccc(F)c(C(F)(F)F)c2)c2ccc(F)c(Cl)c2F)CN1 (stereo partly drawn) [Example 24, (3S)-N-((3-chloro-2,4-difluorophenyl)(4-fluoro-3-(trifluoromethyl)phenyl)methyl)-5-oxopyrrolidine-3-carboxamide]

From US20230227405A1, “5-OXOPYRROLIDINE-3-CARBOXAMIDES AS NAV1.8 INHIBITORS” (MERCK SHARP & DOHME CORP., priority 2020, published 2023)
